{"source": "patent US20210130352A1", "about": "“OGA INHIBITOR COMPOUNDS” (Janssen Pharmaceutica NV, priority 2018, published 2021)", "data": [{"units": {"melting point": "°C"}, "values": [{"smiles": "Cc1ccc2c(ccn2C)c1Nc1nccc2c1ccn2CC(=O)N(C)C", "note": "[Co. No. 2]", "melting point": 251.73}, {"smiles": "COc1nccc(C)c1Nc1nccc2c1ccn2CC(=O)N(C)C", "note": "[Co. No. 4]", "melting point": 221.78}, {"smiles": "CN(C)C(=O)Cn1ccc2c(Nc3c(Cl)cccc3Cl)nccc21", "note": "[Co. No. 5]", "melting point": 215.7}, {"smiles": "Cc1cc(C(F)(F)F)cc(C(C)C)c1Nc1nccc2c1ccn2CC(=O)N(C)C", "note": "[Co. No. 6]", "melting point": 228.29}, {"smiles": "Cc1cncc(Cl)c1Nc1nccc2c1ccn2CC(=O)N1CCC1", "note": "[Co. No. 12]", "melting point": 211.88}, {"smiles": "Cc1cc(C(F)(F)F)cc(C)c1Nc1nccc2c1ccn2CC(=O)N(C)C", "note": "[Co. No. 18]", "melting point": 214.46}, {"smiles": "Cc1cccc(C(F)(F)F)c1Nc1nccc2c1ccn2CC(=O)N(C)C", "note": "[Co. No. 21]", "melting point": 187.16}, {"smiles": "Cc1cccc(Cl)c1Nc1nccc2c1ccn2CC(=O)N(C)C", "note": "[Co. No. 22]", "melting point": 211.1}, {"smiles": "CN(C)C(=O)Cn1ccc2c(Nc3c(F)cccc3Cl)nccc21", "note": "[Co. No. 23]", "melting point": 202.75}, {"smiles": "CN(C)C(=O)Cn1ccc2c(Nc3c(Cl)cccc3OC(F)(F)F)nccc21", "note": "[Co. No. 24]", "melting point": 200.76}, {"smiles": "CC(C)c1cc(OC(F)(F)F)cc(Cl)c1Nc1nccc2c1ccn2CC(=O)N(C)C", "note": "[Co. No. 27]", "melting point": 69.34}]}]}
